Among the data in ChEMBL document CHEMBL3414511, “Synthesis of a novel class of substituted benzothiophene or benzofuran derivatives as BMP-2 up-regulators and evaluation of the BMP-2-up-regulating effects in vitro and the effects on glucocorticoid-induced osteoporosis in rats” (Eur J Med Chem, 2015) are Activity values, retold here.

Data set [1] deals with Rattus norvegicus. Nature of the data set: Toxicity in glucocorticoid-induced Wistar rat osteoporosis model assessed as white blood cells at 30 mg/kg/day, po administered six times a week for 3 months (reference value: 6.28 +/- 2.78 x 10^9/L). Particulars: in vivo. Also noted: route oral. Type of data set: organism-based.
Data set [2] concerns Rattus norvegicus. The data set is described as follows: Toxicity in glucocorticoid-induced Wistar rat osteoporosis model assessed as lymph level at 30 mg/kg/day, po administered six times a week for 3 months (reference value: 50.35 +/- 12.96%). Type of data set: organism-based. Also noted: route oral. Conditions: in vivo.
In data set [3] the test system is Rattus norvegicus. The data set is described as follows: Toxicity in glucocorticoid-induced Wistar rat osteoporosis model assessed as neutrophilic granulocytes level at 30 mg/kg/day, po administered six times a week for 3 months (reference value: 31.95 +/- 8.33%). Type of data set: organism-based. Particulars: in vivo. Also noted: route oral.
Data set [4] concerns Rattus norvegicus. Nature of the data set: Toxicity in glucocorticoid-induced Wistar rat osteoporosis model assessed as effect on red blood cells at 30 mg/kg/day, po administered six times a week for 3 months. It counts as organism-based. Also noted: route oral. Conditions: in vivo.
Data set [5] deals with Rattus norvegicus. Nature of the data set: Toxicity in glucocorticoid-induced Wistar rat osteoporosis model assessed as effect on hemoglobin at 30 mg/kg/day, po administered six times a week for 3 months. Type of data set: organism-based. Also noted: route oral. Conditions: in vivo.
Data set [6] has as its system Rattus norvegicus. Nature of the data set: Toxicity in glucocorticoid-induced Wistar rat osteoporosis model assessed as effect on red blood cell specific volume at 30 mg/kg/day, po administered six times a week for 3 months. Type of data set: organism-based. Also noted: route oral. Particulars: in vivo.
In data set [7] the test system is Rattus norvegicus. Nature of the data set: Toxicity in glucocorticoid-induced Wistar rat osteoporosis model assessed as effect on mean corpuscular volume at 30 mg/kg/day, po administered six times a week for 3 months. Type of data set: organism-based. Also noted: route oral. Conditions: in vivo.
Data set [8] relates to Rattus norvegicus. The data set is described as follows: Toxicity in glucocorticoid-induced Wistar rat osteoporosis model assessed as effect on mean corpuscular hemoglobin concentration at 30 mg/kg/day, po administered six times a week for 3 months. Type of data set: organism-based. Also noted: route oral. Particulars: in vivo.
Data set [9] deals with Rattus norvegicus. Nature of the data set: Toxicity in glucocorticoid-induced Wistar rat osteoporosis model assessed as effect on red blood cell distribution width at 30 mg/kg/day, po administered six times a week for 3 months. It counts as organism-based. Also noted: route oral. Conditions: in vivo.
For data set [10], the system named is Rattus norvegicus. Nature of the data set: Toxicity in glucocorticoid-induced Wistar rat osteoporosis model assessed as effect on platelets at 30 mg/kg/day, po administered six times a week for 3 months. Type of data set: organism-based. Also noted: route oral. Particulars: in vivo.
A short description of data set [11]: Upregulation of BMP-2 expression in mouse MC3T3-E1 cells at 4 uM after 24 hrs by luciferase reporter gene assay relative to control. Type of data set: functional, cell-based.
For data set [12], the system named is Rattus norvegicus. Nature of the data set: Toxicity in glucocorticoid-induced Wistar rat osteoporosis model assessed as aspartate transaminase level at 30 mg/kg/day, po administered six times a week for 3 months (reference value: 177.55 +/- 116.98 U/L). Type of data set: organism-based. Also noted: route oral. Conditions: in vivo.
The subject of data set [13] is Rattus norvegicus. Nature of the data set: Toxicity in glucocorticoid-induced Wistar rat osteoporosis model assessed as alanine transaminase level at 30 mg/kg/day, po administered six times a week for 3 months (reference value: 43.73 +/- 36.21 U/L). It counts as organism-based. Also noted: route oral. Particulars: in vivo.
The test system of data set [14] is Rattus norvegicus. The data set is described as follows: Toxicity in glucocorticoid-induced Wistar rat osteoporosis model assessed as triglycerides level at 30 mg/kg/day, po administered six times a week for 3 months (reference value: 1.13 +/- 0.69 mmol/L). Type of data set: organism-based. Also noted: route oral. Particulars: in vivo.
The subject of data set [15] is Rattus norvegicus. Nature of the data set: Toxicity in glucocorticoid-induced Wistar rat osteoporosis model assessed as effect on total bilirubin level at 30 mg/kg/day, po administered six times a week for 3 months. Type of data set: organism-based. Conditions: in vivo. Also noted: route oral.
Data set [16] deals with Rattus norvegicus. Nature of the data set: Toxicity in glucocorticoid-induced Wistar rat osteoporosis model assessed as effect on total protein level at 30 mg/kg/day, po administered six times a week for 3 months. Type of data set: organism-based. Also noted: route oral. Conditions: in vivo.
For data set [17], the system named is Rattus norvegicus. Nature of the data set: Toxicity in glucocorticoid-induced Wistar rat osteoporosis model assessed as effect on albumin level at 30 mg/kg/day, po administered six times a week for 3 months. It counts as organism-based. Also noted: route oral. Particulars: in vivo.
The subject of data set [18] is Rattus norvegicus. The data set is described as follows: Toxicity in glucocorticoid-induced Wistar rat osteoporosis model assessed as effect on blood urea nitrogen level at 30 mg/kg/day, po administered six times a week for 3 months. It counts as organism-based. Also noted: route oral. Particulars: in vivo.
For data set [19], the system named is Rattus norvegicus. Nature of the data set: Toxicity in glucocorticoid-induced Wistar rat osteoporosis model assessed as effect on creatinine level at 30 mg/kg/day, po administered six times a week for 3 months. It counts as organism-based. Also noted: route oral. Particulars: in vivo.
The subject of data set [20] is Rattus norvegicus. The data set is described as follows: Toxicity in glucocorticoid-induced Wistar rat osteoporosis model assessed as effect on glucose level at 30 mg/kg/day, po administered six times a week for 3 months. Type of data set: organism-based. Also noted: route oral. Conditions: in vivo.
For data set [21], the system named is Rattus norvegicus. The data set is described as follows: Antiosteoporotic activity in glucocorticoid-induced Wistar rat osteoporosis model appearance of turbulent and sparse rarefection of trabecula at 30 mg/kg/day, po administered six times a week for 3 months by toluidine blue staining-based light microscopic analysis. Type of data set: functional, organism-based.

Data set [22] concerns Rattus norvegicus. The data set is described as follows: Antiosteoporotic activity in glucocorticoid-induced Wistar rat osteoporosis model assessed as trabecular bone volume at 30 mg/kg/day, po administered six times a week for 3 months by fluorescence assay (reference value: 33.09 +/- 5.15%). Type of data set: functional, Trabecula.
For data set [23], the system named is Rattus norvegicus. Nature of the data set: Antiosteoporotic activity in glucocorticoid-induced Wistar rat osteoporosis model assessed as trabecula formation surface at 30 mg/kg/day, po administered six times a week for 3 months by fluorescence assay (reference value: 7.82 +/- 2.46%). Type of data set: functional.
Data set [24] relates to Rattus norvegicus. The data set is described as follows: Antiosteoporotic activity in glucocorticoid-induced Wistar rat osteoporosis model assessed as trabecula resorption surface at 30 mg/kg/day, po administered six times a week for 3 months by fluorescence assay (reference value: 7.22 +/- 2.04%). Type of data set: functional.
The test system of data set [25] is Rattus norvegicus. The data set is described as follows: Antiosteoporotic activity in glucocorticoid-induced Wistar rat osteoporosis model assessed as mineral apposition rate at 30 mg/kg/day, po administered six times a week for 3 months by fluorescence assay (reference value: 1.06 +/- 0.27 micrometer/day). Type of data set: functional.
Data set [26] has as its system Rattus norvegicus. Nature of the data set: Toxicity in glucocorticoid-induced Wistar rat osteoporosis model assessed as white blood cells at 5 mg/kg/day, po administered six times a week for 3 months (reference value: 6.28 +/- 2.78 x 10^9/L). Type of data set: organism-based. Also noted: route oral. Conditions: in vivo.
Data set [27] deals with Rattus norvegicus. Nature of the data set: Toxicity in glucocorticoid-induced Wistar rat osteoporosis model assessed as lymph level at 5 mg/kg/day, po administered six times a week for 3 months (reference value: 50.35 +/- 12.96%). Also noted: route oral. Conditions: in vivo. Type of data set: organism-based.
In data set [28] the test system is Rattus norvegicus. The data set is described as follows: Toxicity in glucocorticoid-induced Wistar rat osteoporosis model assessed as neutrophilic granulocytes level at 5 mg/kg/day, po administered six times a week for 3 months (reference value: 31.95 +/- 8.33%). Conditions: in vivo. Also noted: route oral. It counts as organism-based.
The subject of data set [29] is Rattus norvegicus. Nature of the data set: Toxicity in glucocorticoid-induced Wistar rat osteoporosis model assessed as aspartate transaminase level at 5 mg/kg/day, po administered six times a week for 3 months (reference value: 177.55 +/- 116.98 U/L). Also noted: route oral. Type of data set: organism-based. Particulars: in vivo.
The subject of data set [30] is Rattus norvegicus. The data set is described as follows: Toxicity in glucocorticoid-induced Wistar rat osteoporosis model assessed as alanine transaminase level at 5 mg/kg/day, po administered six times a week for 3 months (reference value: 43.73 +/- 36.21 U/L). It counts as organism-based. Also noted: route oral. Particulars: in vivo.
For data set [31], the system named is Rattus norvegicus. The data set is described as follows: Toxicity in glucocorticoid-induced Wistar rat osteoporosis model assessed as triglycerides level at 5 mg/kg/day, po administered six times a week for 3 months (reference value: 1.13 +/- 0.69 mmol/L). It counts as organism-based. Also noted: route oral. Conditions: in vivo.
The subject of data set [32] is Rattus norvegicus. Nature of the data set: Antiosteoporotic activity in glucocorticoid-induced Wistar rat osteoporosis model assessed as trabecular bone volume at 5 mg/kg/day, po administered six times a week for 3 months by fluorescence assay (reference value: 33.09 +/- 5.15%). It counts as functional, Trabecula.
Data set [33] deals with Rattus norvegicus. The data set is described as follows: Antiosteoporotic activity in glucocorticoid-induced Wistar rat osteoporosis model assessed as trabecula formation surface at 5 mg/kg/day, po administered six times a week for 3 months by fluorescence assay (reference value: 7.82 +/- 2.46%). It counts as functional.
Data set [34] deals with Rattus norvegicus. The data set is described as follows: Antiosteoporotic activity in glucocorticoid-induced Wistar rat osteoporosis model assessed as trabecula resorption surface at 5 mg/kg/day, po administered six times a week for 3 months by fluorescence assay (reference value: 7.22 +/- 2.04%). It counts as functional.
The test system of data set [35] is Rattus norvegicus. The data set is described as follows: Antiosteoporotic activity in glucocorticoid-induced Wistar rat osteoporosis model assessed as mineral apposition rate at 5 mg/kg/day, po administered six times a week for 3 months by fluorescence assay (reference value: 1.06 +/- 0.27 micrometer/day). Type of data set: functional.
For data set [36], the system named is Rattus norvegicus. Nature of the data set: Antiosteoporotic activity in glucocorticoid-induced Wistar rat osteoporosis model assessed as increase in trabecula number at 5 mg/kg/day, po administered six times a week for 3 months by toluidine blue staining-based light microscopic analysis relative to dexamethasone. Type of data set: functional, organism-based.

In data set [37] the test system is Rattus norvegicus. The data set is described as follows: Antiosteoporotic activity in glucocorticoid-induced Wistar rat osteoporosis model assessed as increase in trabecula thickness at 5 mg/kg/day, po administered six times a week for 3 months by toluidine blue staining-based light microscopic analysis relative to dexamethasone. It counts as functional, organism-based.

For data set [38], the system named is Rattus norvegicus. The data set is described as follows: Antiosteoporotic activity in glucocorticoid-induced Wistar rat osteoporosis model assessed as increase in trabecula area at 5 mg/kg/day, po administered six times a week for 3 months by toluidine blue staining-based light microscopic analysis relative to dexamethasone. It counts as functional, organism-based.

Data set [39] has as its system Rattus norvegicus. The data set is described as follows: Antiosteoporotic activity in glucocorticoid-induced Wistar rat osteoporosis model assessed as increase in trabecula connectivity at 5 mg/kg/day, po administered six times a week for 3 months by toluidine blue staining-based light microscopic analysis relative to dexamethasone. Type of data set: functional, organism-based.

SMILES strings stand for the structures. The source made the active and inactive calls. The rule behind the calls is not given here.

For the compound `CC(=O)c1cc2ccc(C(=O)O)cc2s1`, the Activity is given as 3.55 ×10⁹ /L in data set [1]; 35.72% in [2]; 47.16% in data set [3]; “Non-toxic” in [4]; “Non-toxic” in data set [5]; “Non-toxic” in [6]. The Activity result in data set [7] was “Non-toxic”; in data set [8] it was “Non-toxic”; in [9], “Non-toxic”; in data set [10], “Non-toxic”; in [11], 102%; in [12], 123.33 U/L. For the same compound, the Activity is 31.17 U/L in data set [13]; 0.53 mmol/L in data set [14]; “Non-toxic” in data set [15]; “Non-toxic” in data set [16]; “Non-toxic” in data set [17]; “Non-toxic” in data set [18]. Moreover, the Activity result in [19] is “Non-toxic”; in data set [20] it was “Non-toxic”; in data set [22] it was 20.5%; in data set [23] it was 4.61%; in [24] it was 10.9%; in data set [25], 0.97 micrometer/day. For the same compound, in [21], the result was inactive.
Consider `O=C(c1ccc(OCCN2CCCCC2)cc1)c1c(-c2ccc(O)cc2)sc2cc(O)ccc12` [RALOXIFENE], for which the Activity in [26] is listed as 2.94 ×10⁹ /L; in data set [27] it was 39.05%; in [28], 40.58%; in data set [29], 115.27 U/L; in data set [30], 35.09 U/L; in data set [31], 0.76 mmol/L. In addition, the Activity in data set [32] is on record as 34.35%; in data set [33] it was 7.04%; in [34] it was 7.82%; in data set [35], 1.16 micrometer/day. Further, the result in [36], in data set [37], in [38] and in data set [39] was Active.
